Data taken from patent US20150297490A1, “COMPOSITIONS, USES AND METHODS FOR TREATING OR PREVENTING DENTAL CARIES” (APOLLONIA HEALTH INC., priority 2012, published 2015).
Values joined by “and” are separate entries in the source; they are usually repeats but may differ in a detail not shown here. Equal entries are not always repeated.

System: S. mutans UA159
Assay: pH of culture medium of S. mutans biofilms after 1 minute incubation with test treatments
Assay type: cell-based, Streptococcus mutans
Details: for pH of the medium, Average: average of samples; for pH of the medium: individual samples 1-4; for drop in pH of the medium (initial pH minus pH at 6 or 8 hours): 6 and 8 hours after treatment, FIGS. 2 and 3; for statistical significance of pH results compared to the water control: p<0.05
From the text: Amongst acidogenic bacteria, S. mutans is the principal etiological agent of caries in humans. Since there is a strong correlation between the proportion of S. mutans in dental plaque or in saliva relative to other bacterial species and the presence or risk of future outbreaks of dental caries, S. mutans in plaque or saliva may serve as an index for both dental caries activity state and dental caries risk or susceptibility. S. mutans UA159 strain was used in this Example.
On the first day, biofilm growth was initiated by inoculating 10 mL of 100% Todd-Hewitt broth (THYE) with 0.3% yeast extract at a pH of 7.0 with UA159 to prepare overnight cultures. The samples were incubated in closed screw-cap tubes without agitation at 37° C. in an anaerobic chamber (5% CO2).
On the second day, 1:100 dilutions were prepared by mixing 20 pl of the overnight UA159 cultures with ¼ THYE with 0.075% yeast extract supplemented with 0.1% sucrose to reach a final volume of 2 mL. The dilutions were then placed into the wells of 12-well plates.
On the third day, the 2 mL of medium was removed from each well. 1.0 mL of test treatment solution, as described below, was added to each well, after which the wells were incubated for 1 minute on the bench at room temperature. Next, the test treatment solutions were removed, and 3.0 mL of undiluted THYE with 0.3% yeast extract and no sucrose was added to each well.
If an internal pH control was required, fresh THYE was also added to two un-inoculated wells. During these steps, care was taken to avoid disrupting the biofilm.
Immediately after 100% THYE with 0.3% yeast extract was added to the wells following incubation with the test treatments, the initial pH of the medium in each well was measured. Samples were incubated at 37° C. in an open air, bench-top incubator, and the pH of the medium was measured once an hour for the next 7-8 hours. Finally, the pH of the medium in each well was measured again the next morning.

O=C([O-])O.[Na+] [Sodium Bicarbonate, Sodium bicarbonate]
pH of the medium, Average (0 hours after treatment): 7.51
pH of the medium (0 hours after treatment): 7.48 and 7.39 and 7.58 and 7.59
drop in pH of the medium (initial pH minus pH at 6 or 8 hours): little to no effect on the drop in pH
pH of the medium, Average (1 hour after treatment): 7.07
pH of the medium (1 hour after treatment): 7.09 and 6.97 and 7.1 and 7.12
pH of the medium, Average (2 hours after treatment): 6.84
pH of the medium (2 hours after treatment): 6.67 and 6.81 and 6.93 and 6.96
pH of the medium, Average (3 hours after treatment): 6.52
pH of the medium (3 hours after treatment): 5.85 and 6.6 and 6.82 and 6.81
pH of the medium, Average (4 hours after treatment): 6.08
pH of the medium (4 hours after treatment): 5.08 and 6.21 and 6.49 and 6.53
pH of the medium, Average (5 hours after treatment): 5.69
pH of the medium (5 hours after treatment): 5.03 and 5.7 and 5.97 and 6.06
pH of the medium, Average (6 hours after treatment): 5.22
pH of the medium (6 hours after treatment): 5 and 5.11 and 5.33 and 5.42
pH of the medium, Average (7 hours after treatment): 5.01
pH of the medium (7 hours after treatment): 5 and 4.96 and 5.01 and 5.06
pH of the medium, Average (8 hours after treatment): 5.00
pH of the medium (8 hours after treatment): 5.06 and 4.96 and 4.97
statistical significance of pH results compared to the water control: statistically significant difference at 1 hour

O.O.O=C([O-])CC(O)(CC(=O)[O-])C(=O)[O-].[Na+].[Na+].[Na+] [Sodium Citrate, Sodium citrate dihydrate]
pH of the medium, Average (0 hours after treatment): 7.50
pH of the medium (0 hours after treatment, citrate dihydrate): 7.5 and 7.35 and 7.57 and 7.58
drop in pH of the medium (initial pH minus pH at 6 or 8 hours): little to no effect on the drop in pH
pH of the medium, Average (1 hour after treatment): 7.05
pH of the medium (1 hour after treatment, citrate dihydrate): 7.05 and 6.93 and 7.09 and 7.12
pH of the medium, Average (2 hours after treatment): 6.83
pH of the medium (2 hours after treatment, citrate dihydrate): 6.69 and 6.75 and 6.91 and 6.95
pH of the medium, Average (3 hours after treatment): 6.50
pH of the medium (3 hours after treatment, citrate dihydrate): 6.01 and 6.47 and 6.76 and 6.77
pH of the medium, Average (4 hours after treatment): 6.00
pH of the medium (4 hours after treatment, citrate dihydrate): 5.14 and 5.94 and 6.44 and 6.48
pH of the medium, Average (5 hours after treatment): 5.64
pH of the medium (5 hours after treatment, citrate dihydrate): 5.02 and 5.49 and 5.96 and 6.07
pH of the medium, Average (6 hours after treatment): 5.22
pH of the medium (6 hours after treatment, citrate dihydrate): 4.98 and 5.06 and 5.36 and 5.46
pH of the medium, Average (7 hours after treatment): 5.00
pH of the medium (7 hours after treatment, citrate dihydrate): 4.97 and 4.92 and 5.04 and 5.07
pH of the medium, Average (8 hours after treatment): 4.97
pH of the medium (8 hours after treatment, citrate dihydrate): 4.99 and 4.95 and 4.96
statistical significance of pH results compared to the water control: no statistically significant difference at any time

OC[C@@H](O)[C@H](O)[C@@H](O)CO [Xylitol]
pH of the medium, Average (0 hours after treatment): 7.50
pH of the medium (0 hours after treatment): 7.49 and 7.36 and 7.58 and 7.57
drop in pH of the medium (initial pH minus pH at 6 or 8 hours): able to slow the pH drop
pH of the medium, Average (1 hour after treatment): 7.08
pH of the medium (1 hour after treatment): 7.08 and 7 and 7.12 (2×)
pH of the medium, Average (2 hours after treatment): 6.87
pH of the medium (2 hours after treatment): 6.72 and 6.82 and 6.97 (2×)
pH of the medium, Average (3 hours after treatment): 6.58
pH of the medium (3 hours after treatment): 6.19 and 6.57 and 6.77 and 6.8
pH of the medium, Average (4 hours after treatment): 6.27
pH of the medium (4 hours after treatment): 5.77 and 6.17 and 6.55 and 6.57
pH of the medium, Average (5 hours after treatment): 6.00
pH of the medium (5 hours after treatment): 5.51 and 5.93 and 6.25 and 6.29
pH of the medium, Average (6 hours after treatment): 5.72
pH of the medium (6 hours after treatment): 5.23 and 5.55 and 6.05 and 6.06
pH of the medium, Average (7 hours after treatment): 5.52
pH of the medium (7 hours after treatment): 5.1 and 5.37 and 5.78 and 5.82
pH of the medium, Average (8 hours after treatment): 5.45
pH of the medium (8 hours after treatment): 5.09 and 5.58 and 5.68
statistical significance of pH results compared to the water control: statistically significant difference at 1, 6, 7, and 8 hours
